The values that follow come from paper PMC2671563 (PLoS Biology, 2009).

One assay concerns the target T1, mS100A9 and mRAGE/hFc (Mus musculus, UniProt P31725).
T1 construct: purchased R&D Systems (mRAGE/Fc); S100A9 made in house
T1 sequence (P31725 2-113 limits assumed): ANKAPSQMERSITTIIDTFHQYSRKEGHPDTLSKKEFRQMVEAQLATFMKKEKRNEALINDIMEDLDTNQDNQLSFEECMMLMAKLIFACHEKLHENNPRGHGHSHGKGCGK
The assay can be described thus: SPR: inhibition of mouse S100A9 binding to immobilised mouse RAGE. To be noted: read-out: S100A9 binding IC50, mS100A9 RAGE; Table S1. The procedure: (§1) The SPR analysis was carried out with the Biacore 3000 system (GE Healthcare). Sensor chips, amine coupling kit, immobilization and running buffers, and regeneration solutions were obtained from GE Healthcare. Working solutions of all reagents used for Biacore analysis were prepared in 0.01 M Hepes, 0.15 M NaCl (pH 7.4) containing 0.005% v/v Surfactant P-20 (HBS-P; GE Healthcare) by buffer exchange on Fast Protein Desalting Micro-Spin Columns from Pierce. ABR-215757 was immobilised onto a CM5 chip through an amino-linker (ABR-224649). […] Activity of ligands after immobilisation was tested by injecting specific antibodies (unpublished data). In some experiments, S100A9 was immobilized either by random amine coupling or with a known orientation (i.e., by sulhydryl group conjugation to the only cysteine in S100A9 at position 3).
(§2) Binding to the various surfaces was performed by injecting the analyte at a flow rate of 30 μl/min in a physiological buffer (HBS-P) containing 1 mM Ca^2+ and 10 μM Zn^2+ as proposed for S100A8/9 by Robinson et al.. A typical analysis cycle consists of: (1) pumping running buffer for 1 min to obtain a stable baseline; (2) injection of sample for an appropriate period of time (association); (3) pumping running buffer for 2.5 min (dissociation); (4) injection of a short pulse (30 s) of 15 μl 10 mM glycine-HCl (pH 2.0) (regeneration); and (5) pumping running buffer for 2 min (stabilisation after regeneration) at a flow rate of 30 μl/min. […] In one experiment, S100A9 was injected into a buffer with a fixed Ca^2+ concentration (1 mM) and Zn^2+ in the range 0–50 μM. In a second experiment, Ca^2+ was varied from 0–2 mM at a fixed Zn^2+ concentration (10 μM). In subsequent analyses, regeneration was carried out under more mild conditions, i.e., by injecting 30 μl of HBS-P containing 3 mM EDTA (HBS-EP; GE Healthcare) for 60 s, to prolong the lifespan of the chip.
(§3) Compounds were also injected over the immobilised surfaces in the absence of S100A9 to exclude, or make possible correction for, any direct binding of compound to the surface.
(§4) Evaluation was carried out using BIAevaluation Software version 3.2 (GE Healthcare). The response at steady-state was obtained by fit of sensorgrams to standard binding models, where appropriate, or calculated as responses at late association or early dissociation phase using the Steady state affinity function in BIAevaluation. Affinity was determined from kinetic analysis (on- and off-rates) or as the apparent affinity after plotting responses versus concentration of analyte in a saturation curve. In the inhibition assay format, the competitor concentration yielding 50% inhibition (IC50) was calculated by fitting data to a one-site competition model in GraphPad Prism.

Assay [1] deals with T2, human S100A9 binding to human TLR4/MD2 (Homo sapiens, UniProt P06702).
T2 construct: purchased R&D Systems (TLR4/MD-2 complex); S100A9 made in house
T2 sequence (P06702 1-114): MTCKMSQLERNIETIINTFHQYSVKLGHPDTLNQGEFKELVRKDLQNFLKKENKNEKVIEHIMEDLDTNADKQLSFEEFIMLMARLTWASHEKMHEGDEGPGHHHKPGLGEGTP
Put plainly: SPR: inhibition of human S100A9 binding to immobilised human TLR4/MD2. The note with it: for pIC50: Table S1, read-out: S100A9 binding IC50, hS100A9 TLR4. Here is the method: as §1, §2, §3, §4
(In general: SPR reads the build-up and loss of mass on a sensor chip optically.)

The target in the next assay is T3, mS100A9 and mLPS-Trap (Mus musculus, UniProt P31725).
T3 sequence (P31725 2-113 limits assumed): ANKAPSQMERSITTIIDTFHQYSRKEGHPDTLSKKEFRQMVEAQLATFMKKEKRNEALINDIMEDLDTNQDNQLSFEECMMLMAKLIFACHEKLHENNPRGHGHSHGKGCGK
The assay can be described thus: SPR: inhibition of mouse S100A9 binding to immobilised mouse TLR4/MD2 fusion protein (mLPS-Trap). The note with it: for pIC50: Table S1. The procedure:
as §1, §2, §3, §4

In the next assay the target is T4, mS100A8/A9 and mLPS-Trap (Mus musculus, UniProt P31725).
T4 sequence (P31725 2-113 limits assumed): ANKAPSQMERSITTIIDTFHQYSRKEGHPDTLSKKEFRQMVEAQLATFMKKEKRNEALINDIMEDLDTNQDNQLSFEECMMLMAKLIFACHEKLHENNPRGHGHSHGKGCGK
Put plainly: SPR: inhibition of mouse S100A8/A9 binding to mLPS-Trap. The note with it: Table S1; read-out: S100A8-9 binding IC50, mS100A8/A9 TLR4. Here is the method: as §1, §2, §3, §4

The target of the next assay is T5, mS100A8/A9 and mRAGE (Mus musculus, UniProt P31725).
T5 construct: purchased R&D Systems (mRAGE/Fc); S100A8/A9 made in house
T5 sequence (P31725 2-113 limits assumed): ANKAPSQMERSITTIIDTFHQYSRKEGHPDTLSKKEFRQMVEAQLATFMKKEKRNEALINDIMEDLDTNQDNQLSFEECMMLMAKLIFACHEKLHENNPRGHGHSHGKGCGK
T5 sequence (P27005 2-89 partner limits assumed): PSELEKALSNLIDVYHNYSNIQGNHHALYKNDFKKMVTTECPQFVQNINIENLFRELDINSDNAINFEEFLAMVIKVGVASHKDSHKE
Put plainly: SPR: inhibition of mouse S100A8/A9 binding to mouse RAGE. The note with it: read-out: S100A8-9 binding IC50, mS100A8/A9 RAGE; Table S1. Here is the method: as §1, §2, §3, §4

The target in a further assay is T6, mS100A9 (Mus musculus, UniProt P31725).
T6 construct: made in house; host or cells: Escherichia coli (or purified from granulocytes)
T6 sequence (P31725 1-113): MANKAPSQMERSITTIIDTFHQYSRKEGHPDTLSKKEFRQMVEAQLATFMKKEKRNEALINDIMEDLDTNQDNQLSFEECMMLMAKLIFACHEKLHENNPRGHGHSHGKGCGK
Put plainly: SPR: inhibition of mouse S100A9 binding to immobilised ABR-224649. To be noted: Table S1. The procedure: as §1, §2, §3, §4

In assay [2] the target is T7, human S100A9 binding to human RAGE (Homo sapiens, UniProt P06702).
T7 construct: purchased R&D Systems (RAGE/Fc); S100A9 made in house
T7 sequence (P06702 1-114): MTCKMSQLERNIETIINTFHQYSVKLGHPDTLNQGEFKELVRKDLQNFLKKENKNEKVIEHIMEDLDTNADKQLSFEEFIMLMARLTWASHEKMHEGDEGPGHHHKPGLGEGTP
Put plainly: SPR: inhibition of human S100A9 binding to immobilised human RAGE. To be noted: read-out: S100A9 binding IC50, hS100A9 RAGE; Table S1. Here is the method: as §1, §2, §3, §4

Assay [3] has as its system aEAE development in SLJ/N mice. Put plainly: acute experimental autoimmune encephalomyelitis (aEAE) in mice. Type of assay: in vivo, mouse. The text has this: A training set of five quinoline derivatives with structural diversification performed at position 5 of the quinoline ring system was used for the SAR. PCA was used to uncover any relationship between the binding activities of the quinoline derivatives at the S100 proteins and the inhibitory effect of these derivatives in the aEAE model. PLS was then used to model the relationship between the physiochemical descriptors used to characterize the compounds and their biological responses. […] All variables were mean centred and scaled to unit variance.

Another assay has as its target mouse S100A9 (mouse) (UniProt P31725). Put plainly: SPR; competition: 100 nM mouse S100A9 injected over amine-coupled mLPS-Trap with soluble mLPS-Trap (100, 200, 400 nM) as competitor.

pIC50: −log10 of the molar value.

As to `CCN(C(=O)c1c(O)c2c(Br)cccc2n(C)c1=O)c1ccccc1` [ABR-215727], the pIC50 was 3.72 on mS100A9 and mRAGE/hFc; 4.06 in assay [1]; 3.36 at mS100A9 and mLPS-Trap; 3.70 on mS100A8/A9 and mLPS-Trap; 3.79 on mS100A8/A9 and mRAGE; 3.28 at mS100A9. Besides, the pIC50 in assay [2] is 4.10. The “aEAE Inhibition ED50” value in [3] is 0.16 mg/kg.

As for `CCN(C(=O)c1c(O)c2ccccc2n(C)c1=O)c1ccccc1` [ABR-212662], the pIC50 is 2.99 on mS100A9 and mRAGE/hFc; 3.38 in [1]; 2.71 at mS100A9 and mLPS-Trap; 3.24 at mS100A8/A9 and mLPS-Trap; 3.14 on mS100A8/A9 and mRAGE; 2.71 at mS100A9. The pIC50 in assay [2] was 3.36. In addition, the “aEAE Inhibition ED50” value in assay [3] stood at 1.87 mg/kg.

For `CCN(C(=O)c1c(O)c2c(C)cccc2n(C)c1=O)c1ccccc1` [ABR-215111], the pIC50 at mS100A9 and mRAGE/hFc was 3.11; in assay [1] it was 3.66; at mS100A9 and mLPS-Trap, 2.91; on mS100A8/A9 and mLPS-Trap it was 3.53; on mS100A8/A9 and mRAGE, 3.51; on mS100A9, 2.87. Besides, the pIC50 in [2] was 3.77. Further, the “aEAE Inhibition ED50” value in assay [3] is reported as 0.55 mg/kg.

On to `CCN(C(=O)c1c(O)c2c(C(F)(F)F)cccc2n(C)c1=O)c1ccccc1` [ABR-215629], for which the pIC50 is 3.64 on mS100A9 and mRAGE/hFc; 4.10 in [1]; 3.13 on mS100A9 and mLPS-Trap; 3.52 at mS100A8/A9 and mLPS-Trap; 3.45 on mS100A8/A9 and mRAGE; 3.04 at mS100A9. Moreover, in assay [3], the “aEAE Inhibition ED50” value was determined as 0.13 mg/kg.

On to “mouse TLR4/MD2 fusion protein (mLPS-Trap)”, for which, in the assay with mouse S100A9 (mouse), the percent inhibition of mS100A9 binding to immobilised mLPS-Trap at 100 nM competitor came out at 22%, the percent inhibition of mS100A9 binding to immobilised mLPS-Trap at 200 nM competitor is 51% and the percent inhibition of mS100A9 binding to immobilised mLPS-Trap at 400 nM competitor worked out at 70%.

Consider “lipopolysaccharide [LPS, reference compound]”, for which the “effect on hS100A9 binding to immobilised hTLR4/MD2” value in assay [1] (200 ng/ml) is listed as “no effect”. Besides, the “effect on mS100A9 binding to immobilised mLPS-Trap” value at mS100A9 and mLPS-Trap is recorded as “no effect”.
